# Assay results published in patent US20080096967A1, “Formulations for Injection of Catecholic Butanes, Including Ndga Compounds, Into Animals” (priority 2005, published 2008).
# Test system: HeLa, an HPV-18 positive human cervical cancer cell line
# Assay: Cell proliferation and cell death, trypan blue exclusion, HeLa cells
# Format: cell-based
# Description: M4N in 10% (w/v) HP-β-CD and 25% (v/v) PEG 300 (hereafter, the “CPE formulation”), M4N in 30% (w/v) HP-β-CD and 25% (v/v) PEG 300 (hereafter, the “CPE 25/30 formulation”) and M4N in 27% (w/v) HP-β-CD and 33% (v/v) PEG 300 (hereafter, the “CPE 33/27 formulation”) was tested for their effects on cell death and proliferation on two different tumor cell lines: HeLa, an HPV-18 positive human cervical cancer cell line, and C-33A, an HPV-negative human cervical cancer cell line M4N in DMSO was also tested in parallel. Both tumor cell lines were treated with increasing amounts of M4N: 0 μM, 20 μM, 40 μM, 60 μM and 80 μM, for 72 hr with the DMSO or the CPE formulation. Each formulation was added to total 1% of the growth media (Minimal Essential Medium with L-glutamine supplemented with 10% fetal bovine serum, 1 mM sodium pyruvate, 1× non-essential amino acid solution, and 1,000 IU/mL penicillin/1,000 μg/mL streptomycin solution). Control cells were grown under the same conditions and were left untreated. After 72 hr of treatment or no treatment, the total number of cells and the number of live cells in each sample were counted, using the trypan blue exclusion method. The cell proliferation rate and the percentage of dead cells in each sample were analyzed. Results of this experiment are shown in FIG. 1, FIG. 2, and Tables 6 through 12.
# FIG. 1 is a graphical representation of the ratio of the number of treated cells/number of untreated cells plotted against increasing concentrations of M4N in either the DMSO formulation or the CPE formulation for treatment of the C-33A cells and HeLa cells. FIG. 2 is a graphical representation of the percentage of dead cells plotted against increasing concentrations of M4N and in either DMSO formulation or the CPE formulation for treatment of the two cancer cell lines, C-33A and HeLa cells in culture.
# Various lots of M4N were tested to show the effectiveness of the drug of different lots. HeLa cells were treated with increasing amounts of M4N: 0 μM, 20 μM, 40 μM, 60 μM and 80 μM, for 72 hr with the CPE formulation. Each formulation was added to total 1% of the growth media (Minimal Essential Medium with L-glutamine supplemented with 10% fetal bovine serum, 1 mM sodium pyruvate, 1× non-essential amino acid solution, and 1,000 IU/mL penicillin/1,000 μg/mL streptomycin solution). Control cells were grown under the same conditions and were left untreated. After 72 hr of treatment or no treatment, the total number of cells and the number of live cells in each sample were counted, using the trypan blue exclusion method. The cell proliferation rate and the percentage of dead cells in each sample were analyzed.
# [1] = M4N 60 μM in CPE formulation, 72 hr, at 9 months
# [2] = M4N 60 μM in CPE formulation, 72 hr, at 12 months
# [3] = M4N 60 μM in CPE formulation, 72 hr, comparison with CPE 25/30
# [4] = M4N 60 μM in CPE formulation, 72 hr, time 0
# [5] = M4N 60 μM in CPE formulation, 72 hr, time zero, comparison with CPE 33/27
# [6] = M4N 60 μM in DMSO, 72 hr, at 9 months
# [7] = M4N 60 μM in DMSO, 72 hr, at 12 months
# [8] = M4N 60 μM in DMSO, 72 hr, time 0
# [9] = M4N 80 μM in CPE 25/30 formulation, 72 hr
# [10] = M4N 80 μM in CPE 25/30 formulation, 72 hr, at 3 months
# [11] = M4N 80 μM in CPE 33/27 formulation, 72 hr, time zero
# [12] = M4N 80 μM in CPE formulation, 72 hr, at 3 months
# [13] = M4N 80 μM in CPE formulation, 72 hr, at 9 months
# [14] = M4N 80 μM in CPE formulation, 72 hr, at 12 months
# [15] = M4N 80 μM in CPE formulation, 72 hr, comparison with CPE 25/30
# [16] = M4N 80 μM in CPE formulation, 72 hr, time 0
# [17] = M4N 80 μM in CPE formulation, 72 hr, time zero, comparison with CPE 33/27
# [18] = M4N 80 μM in DMSO, 72 hr, at 9 months
# [19] = M4N 80 μM in DMSO, 72 hr, at 12 months
# [20] = M4N 80 μM in DMSO, 72 hr, time 0
# [21] = M4N lot EM1001, 20 μM in CPE formulation, 72 hr
# [22] = M4N lot EM1001, 40 μM in CPE formulation, 72 hr
# [23] = M4N lot EM1001, 60 μM in CPE formulation, 72 hr
# [24] = M4N lot EM1001, 80 μM in CPE formulation, 72 hr
# [25] = M4N lot EM1002, 20 μM in CPE formulation, 72 hr
# [26] = M4N lot EM1002, 40 μM in CPE formulation, 72 hr
# [27] = M4N lot EM1002, 60 μM in CPE formulation, 72 hr
# [28] = M4N lot EM1002, 80 μM in CPE formulation, 72 hr
compound,measurement,setting,value
"COc1ccc(C[C@@H](C)[C@@H](C)Cc2ccc(OC)c(OC)c2)cc1OC [Formulation M4N, meso-1,4-bis(3,4-dimethoxyphenyl)-2,3-dimethylbutane]",Proliferation Rate,"M4N 60 μM in CPE formulation, 72 hr, at 3 months",0.03
same,% Dead Cells,[1],13.6%
same,% Viability,[1],86.4%
same,Proliferation Rate,[1],0.09
same,% Dead Cells,[2],25.0%
same,% Viability,[2],75.0%
same,Proliferation Rate,[2],0.05
same,% Dead Cells,[3],55.6%
same,% Viability,[3],44.5%
same,Proliferation Rate,[3],0.03
same,% Dead Cells,[4],19.6%
same,% Viability,[4],80.4%
same,Proliferation Rate,[4],0.13
same,% Dead Cells,[5],26.2%
same,% Viability,[5],73.9%
same,Proliferation Rate,[5],0.10
same,% Dead Cells,[6],32.5%
same,% Viability,[6],67.5%
same,Proliferation Rate,[6],0.03
same,% Dead Cells,[7],35.4%
same,% Viability,[7],64.6%
same,Proliferation Rate,[7],0.04
same,% Dead Cells,[8],36.1%
same,% Viability,[8],63.9%
same,Proliferation Rate,[8],0.13
same,% Dead Cells,[9],45.2%
same,% Viability,[9],54.8%
same,Proliferation Rate,[9],0.07
same,% Dead Cells,[10],35.6%
same,% Viability,[10],64.4%
same,Proliferation Rate,[10],0.04
same,% Dead Cells,[11],25.0%
same,% Viability,[11],75.0%
same,Proliferation Rate,[11],0.09
same,% Dead Cells,[12],29.0%
same,% Viability,[12],71.0%
same,Proliferation Rate,[12],0.03
same,% Dead Cells,[13],11.9%
same,% Viability,[13],88.1%
same,Proliferation Rate,[13],0.08
same,% Dead Cells,[14],47.2%
same,% Viability,[14],52.8%
same,Proliferation Rate,[14],0.03
same,% Dead Cells,[15],56.7%
same,% Viability,[15],43.4%
same,Proliferation Rate,[15],0.04
same,% Dead Cells,[16],21.5%
same,% Viability,[16],78.5%
same,Proliferation Rate,[16],0.13
same,% Dead Cells,[17],21.6%
same,% Viability,[17],78.4%
same,Proliferation Rate,[17],0.11
same,% Dead Cells,[18],50.0%
same,% Viability,[18],50.0%
same,Proliferation Rate,[18],0.02
same,% Dead Cells,[19],23.6%
same,% Viability,[19],76.5%
same,Proliferation Rate,[19],0.15
same,% Dead Cells,[20],38.6%
same,% Viability,[20],61.4%
same,Proliferation Rate,[20],0.02
same,Cell proliferation rate,M4N in DMSO or CPE formulation vs non-M4N-treated controls in the same formulation,reduced
same,% Dead Cells,[21],5.1%
same,% Viability,[21],94.9%
same,Proliferation Rate,[21],0.25
same,% Dead Cells,[22],26.3%
same,% Viability,[22],73.7%
same,Proliferation Rate,[22],0.10
same,% Dead Cells,[23],55.6%
same,% Viability,[23],44.4%
same,Proliferation Rate,[23],0.01
same,% Dead Cells,[24],40.2%
same,% Viability,[24],59.8%
same,Proliferation Rate,[24],0.01
same,% Dead Cells,[25],12.0%
same,% Viability,[25],88.0%
same,Proliferation Rate,[25],0.32
same,% Dead Cells,[26],25.8%
same,% Viability,[26],74.2%
same,Proliferation Rate,[26],0.11
same,% Dead Cells,[27],58.1%
same,% Viability,[27],41.9%
same,Proliferation Rate,[27],0.05
same,% Dead Cells,[28],59.7%
same,% Viability,[28],40.3%
same,Proliferation Rate,[28],0.03
same,IC50,"read-out: M4N sufficient to cause about a 50% inhibition in cell proliferation, CPE formulation, 72 hr",~20 µM
